Experimental data reported in US6921775B2, “Methods for modulating brain damage” (Children's Medical Center Corporation, priority 2001, dated 2005).

Columns and labels:
[1] = system: calcium permeable AMPA/kainate receptors; experiment: AMPA induced cobalt uptake in coronal brain slices; type: cell-based; conditions: P7 rat slices, 100 μM AMPA, 100 μM MK-801, 20 minute
From the text: P6/7 Long Evans rat pups were sacrificed by decapitation and the brains were removed quickly and placed in ice cold rat ACSF. 300 μm coronal slices were cut on a live-slice dedicated vibratome while continually maintained in oxygen bubbled, cold ACSF. Slices were transferred to an oxygen chamber, where they were maintained at room temperature.
300 μm thick vibratome cut coronal slices were collected from the anterior commissure to the anterior aspect of the thalamus and placed in oxygen-rich ice cold rat ACSF. Stabilized slices were transferred to a room temperature oxygen chamber and maintained in ACSF. Stable slices were transferred to modified ACSF containing low calcium and 5 mM CoCL2 and stimulated with 100 μM AMPA in the presence of 100 μM MK-801 and with or without topiramate in varying concentrations. Slices were incubated at room temperature for 20 minutes then rinsed in ACSF, followed by 3 rinses in ASCF containing 2 mM EDTA to chelate and remove any unbound cobalt. Cobalt was then precipitated with ammonium […]. Sections were fixed in 4% paraformaldehyde for 10 minutes, rinsed and stored in PBS. Silver enhancement of precipitate was carried out for improved visualization. Slices were transferred to enhancement solution (10% sucrose, 15.5 mM hydroquinone, 42 mM citric acid) and warmed to 50° C. Slices were moved to similar solution containing 0.1% silver nitrate, then incubated at 50° C. for 45 minutes, with solution changes every 15 minutes. Sections were rinsed in PBS then cryoprotected in 30% sucrose solution and 40 μm sections, cut using a freezing microtome, were mounted on slides and analyzed.
Cortical slices were assessed for the presence of AMPA induced cobalt uptake in coronal slices from P7 rats. […] Immature OLs in pericallosal white matter at P7 show consistent cobalt uptake following 20 minute incubation with 100 μM AMPA, 100 μM MK-801 in low Ca^2+, cobalt containing rat ACSF (FIG. 6B). Cobalt-containing white matter cells were identified as OL precursors by immunolabeling with O4 surface antigen (FIG. 6C and FIG. 6D). […]

[2] = system: O4+ OLs in subcortical white matter; experiment: OL proliferation and maturation in vivo in pups without insult; design: species or system rat; conditions: 30 mg/kg topiramate or 20 mg/kg NBQX; for number of proliferating (BrdU labeled, O4+) OLs in subcortical white matter: 4 injections every 12 hours at P7 and P8, no insult, vs vehicle; for maturation of white matter (O4, O1, MBP immunohistostaining), qualitative: 4 injections every 12 hours at P7 and P8, at P9 or P11
Protocol: Litters of male Long Evans rat pups (Charles River Laboratories, Wilmington, Mass.) were raised with dams in a temperature-controlled environment with 12 hour light-dark cycles. Pups underwent carotid ligation and hypoxia at post-natal-day (P)7. They were recovered on a thermal blanket at 33-34° C. (baseline temperature for P7 rats) and returned to their dam for 48-96 hours prior to sacrifice. Treated pups were given intra-peritoneal (i.p.) injections of 0.1 cc solutions of topiramate, NBQX or vehicle every 12 hours for 48 hours at P7 and P8 for treatment, control and normal development studies.
Oligodendrocyte maturation and myelin expression were evaluated in animals treated for 48 hours with topiramate as compared with normal development. The sub-cortical white matter was evaluated by immunocytochemistry with antibodies to O4, O1 and myelin basic protein (MBP), for changes in pre-myelinating OL populations and in the pattern of MBP expression in rats sacrificed at P9, acutely after treatment. To evaluate for any permanent effect on mature myelination, the quantity of MBP at P28 in animals treated for 48 hours at P7/8 with topiramate was compared with untreated littermates by Western blot.
Histological and immunocytochemical (ICC) analysis was carried out on serial 20-30 μm coronal sections, cut by either cryostat (for pre-mounted sections) or freezing microtome (floating sections) from the anterior extent of the lateral ventricles through the posterior extent of the dorsal hippocampus. Representative sections from all experimental animals were stained with hematoxylin and eosin (HE) for routine evaluation.
For ICC evaluation, adjacent mounted sections were incubated in 5-10% normal goat serum for one hour to block non-specific binding and concurrently permeabilized in 0.1% Triton X-100. Slides were incubated with MBP antibody (SMA-99, Sternberger Monoclonals, Baltimore, Md.) at a dilution of 1:800 in PBS with 1% normal goat serum plus 0.1% Triton overnight at 4° C., followed by Oregon Green (Molecular Probes, Eugene, Oreg.) anti-mouse IgG secondary antibody for one hour at room temperature. […]
Litters were divided and pups received 4 injections, one every 12 hours for 48 hours at P7 and P8, of either vehicle (n=6), 30 mg/kg topiramate (n=7) or 20 mg/kg NBQX (n=7). […] At the completion of 48 hours the animals were sacrificed and the number of BrdU labeled, O4+ OLs present in the subcortical white matter of coronal sections (n=20/group) were counted (FIG. 5B). […] Furthermore, qualitative analysis of white matter by immunohistostaining for OL stage-specific markers O4, O1 and MBP was carried out in serial sections of the same animals evaluated above.

[3] = 100 μM NBQX or 50 μM topiramate

Structure (SMILES) | cobalt uptake in immature OLs of pericallosal white matter ([1]; 10 μM topiramate) | cobalt uptake in immature OLs of pericallosal white matter [1, 3] | number of proliferating (BrdU labeled, O4+) OLs in subcortical white matter [2] | maturation of white matter (O4, O1, MBP immunohistostaining), qualitative [2]
CC1(C)O[C@@H]2[C@@H](CO[C@@]3(COS(N)(=O)=O)OC(C)(C)O[C@@H]23)O1 [topiramate] | partial effect | effectively blocked | No difference in the number of proliferating OLs was detected | No qualitative difference in maturation was seen
NS(=O)(=O)c1cccc2c1c([N+](=O)[O-])cc1nc(O)c(O)nc12 [NBQX, 2,3-Dioxo-6-nitro-1,2,3,4-tetrahydrobenzo[f]quinoxaline-7-sulphonamide] |  | effectively blocked | No difference in the number of proliferating OLs was detected | No qualitative difference in maturation was seen
